# Results taken from patent US8349791B2, “Polypeptides that bind membrane proteins” (The Trustees of the University of Pennsylvania, priority 2006, dated 2013).
# Square brackets hold non-standard residues; d marks the D form. Ends that are not written are not given here.
# Assays:
# [1] = test system: gel-filtered human platelets; experiment: Platelet aggregation, turbidometric; type: cell-based; details: gel-filtered human platelets
# Procedure: Platelet-rich plasma, prepared from human blood anti-coagulated with 0.1 volume of 0.13 M sodium citrate, was gel-filtered on Sepharose 2B (Amersham Biosciences, Piscataway, N.J.) using an elution buffer containing 137 mM NaCl, 2.7 mM KCl, 1 mM MgCl2, 5.6 mM glucose, 0.35 mg/ml bovine serum albumin, 3.3 mM NaH2PO4, and 4 mM HEPES (pH=7.4), as previously described. Jordan P et al. Nature 411, 909-917 (2001). Turbidometric measurements of platelet aggregation were performed in a Chrono-Log Lumi-Dual Aggregometer. Aliquots (0.4 ml) of the gel-filtered platelet suspension were supplemented with 200 μg/ml human fibrinogen (Enzyme Research Labs., South Bend, Ind.) and 1 mM CaCl2 (final concentrations) prior to adding platelet agonists. The polypeptide was added from a DMSO solution such that the final concentration of DMSO was no greater than 0.5%. All controls also had 0.5% DMSO in the buffer.
# [2] = target: T1, full-length αIIbβ3 integrin (Homo sapiens, UniProt P08514); experiment: Fluorescence anisotropy titration with full-length integrin; type: binding; details: N-octyl-β-D-glucopyranoside micelles, 64 nM labelled peptide, 25° C.
# T1 construct: The full-length integrin aIIbβ3 protein in buffer
# Procedure: The full-length integrin aIIbβ3 protein in buffer (7.9 mg/ml, 10 mM HEPES (pH=7.5), 60 mM N-octyl-β-D-glucopyranoside, 0.5 mM CaCl2, 0.02% NaN3) was prepared using the previously reported method. Weisel J W et al. J. Biol. Chem. 267, 16637-16643 (1992). Fluorescence polarization experiments were conducted on an ATF 105 spectrofluorometer (Aviv Biomedical, Inc., Lakewood, N.J.) using a 0.3 cm path length cuvette. Spectra were measured at 25° C. using 1.0 nm slit widths. Excitation at 408 nm was used for the coumarin-labeled polypeptide and the emission maximum at 433 nm was monitored. Anisotropy measurements were recorded upon titration of the integrin αIIbβ3 protein at varying concentrations into a polypeptide solution of 64 nM coum-anti-αIIb or coum-anti-αIIbmut. Data analysis was carried out according to previously described methods. See Yin H et al. J. Am. Chem. Soc. 127, 10191-96 (2005).
# [3] = test system: gel-filtered human platelets; details: cited from earlier work
substance,measurement,setting,value
RAWFALFLLIFLGFLLGVATLLVQY ([dR][dA][dW][dF][dA][dL][dF][dL][dL][dI][dF][dL]G[dF][dL][dL]G[dV][dA][dT][dL][dL][dV][dQ][dY]) [d-anti-αIIb],platelet aggregation response,[1],aggregation of gel-filtered human platelets was induced by increasing concentrations
KKIFGVLTFLFGYILGALITGAVYWFVQLLAKK [anti-αIIb′],platelet aggregation response,[1],highly active
"coum-anti-αIIb: 7-hydroxycoumarin-3-carboxamide-labeled anti-αIIb, label attached via a linker to the N-terminus (KKAYVMLLPFFIGLLLGLIFGGAFWGPARHLKK; not fully specified (N-terminus, C-terminus); also: label attached via an unspecified linker)",apparent Kdiss for αIIbβ3,[2],1.3±0.2×10^−5 mole fraction units
αIIb-TM: polypeptide spanning residues Trp968 to Lys989 of αIIb (WVLVGVLGGLLLLTILVLAMWK),potency as activator of αIIbβ3 / inducer of platelet aggregation relative to anti-αIIb,[3],substantially less potent
